Assay results from patent publication US4060530A, “Clavulanic acid amides” (Beecham Group Limited, priority 1975, dated 1977).
Where a name gives a salt, the structure may show the parent alone.

Tests used:
Proteus mirabilis C977 = assay: MIC, microtitre method (Example 30); conditions: C977, read-out: Minimum Inhibitory Concentration
Experimental: (§1) The cultures were incubated overnight and the points of bacterial growth recorded next morning by observing the turbidity of the culture.

[1] = test system: Escherichia coli NCTC 10481; assay: MIC / synergism, microtitre method (Example 42); format: cell-based; conditions: NCTC10481, agent alone, inoculum final dilution 0.5 ×10^-2, 37° C overnight, read-out: Minimum Inhibitory Concentration
Providentia stuartii = assay: MIC, microtitre method (Example 30); conditions: read-out: Minimum Inhibitory Concentration
Experimental: as §1

Klebsiella oxytocum = assay: MIC, microtitre method (Example 30); conditions: read-out: Minimum Inhibitory Concentration
Experimental: as §1

Acinetobacter anitratus = assay: MIC, microtitre method (Example 30); conditions: Acinetobacter calcoaceticus, read-out: Minimum Inhibitory Concentration
Experimental: as §1

Klebsiella sp 62 = assay: MIC / synergism, microtitre method (Example 42); format: cell-based; conditions: agent alone, inoculum final dilution 0.5 ×10^-2, 37° C overnight, read-out: Minimum Inhibitory Concentration
[2] = test system: Enterobacter aerogenes T 624; assay: MIC, microtitre method (Example 30); conditions: Klebsiella aerogenes, T624, read-out: Minimum Inhibitory Concentration
Experimental: as §1

Salmonella typhimurium = assay: MIC, microtitre method (Example 30); conditions: Salmonella enterica, read-out: Minimum Inhibitory Concentration
Experimental: as §1

Enterobacter cloacae [3] = assay: MIC / synergism, microtitre method (Example 42); format: cell-based; conditions: agent alone, inoculum final dilution 0.5 ×10^-2, 37° C overnight, read-out: Minimum Inhibitory Concentration
[4] = test system: Staphylococcus aureus (Russell); assay: MIC / synergism, microtitre method (Example 42); format: cell-based; conditions: Staphylococcus aureus; agent alone (Tables 5, 6); inoculum final dilution 0.5 ×10^-2, 37° C overnight; read-out: Minimum Inhibitory Concentration
[5] = test system: Staphylococcus aureus (Russell); assay: MIC, microtitre method (Example 30); conditions: read-out: Minimum Inhibitory Concentration
Experimental: as §1

Bacillus subtilis = assay: MIC, microtitre method (Example 30); conditions: read-out: Minimum Inhibitory Concentration
Experimental: as §1

Escherchia coli 10418 = assay: MIC, method of Example 30 with 1/100 dilution of overnight broth (Example 46)
Experimental: as §1

[6] = test system: Streptococcus pyogenes CN 10; assay: MIC, microtitre method (Example 30); conditions: CN10, read-out: Minimum Inhibitory Concentration
Experimental: as §1

Serratia marcescens [7] = assay: MIC, microtitre method (Example 30); conditions: read-out: Minimum Inhibitory Concentration
Experimental: as §1

Shigella sonnei = assay: MIC, microtitre method (Example 30); conditions: read-out: Minimum Inhibitory Concentration
Experimental: as §1

Streptococcus faecalis = assay: MIC, microtitre method (Example 30); conditions: Enterococcus faecalis, read-out: Minimum Inhibitory Concentration
Experimental: as §1

Staph. aureus Russell = assay: MIC, method of Example 30 with 1/100 dilution of overnight broth (Example 46); conditions: Staphylococcus aureus
Experimental: as §1

Staphylococcus aureus = assay: MIC / synergism, microtitre method (Example 42); format: cell-based; conditions: Staphylococcus aureus; agent alone (Tables 5, 6); inoculum final dilution 0.5 ×10^-2, 37° C overnight; read-out: Minimum Inhibitory Concentration
Pseudomonas aeruginosa A = assay: MIC, microtitre method (Example 30); conditions: read-out: Minimum Inhibitory Concentration
Experimental: as §1

[8] = test system: Escherichia coli NCTC 10418; assay: MIC, microtitre method (Example 30); conditions: NCTC10418, read-out: Minimum Inhibitory Concentration
Experimental: as §1

Bacillus subtilis A = assay: MIC, method of Example 30 with 1/100 dilution of overnight broth (Example 46); conditions: Bacillus subtilis
Experimental: as §1

Staph. aureus Oxford = assay: as above; conditions: Staphylococcus aureus
Experimental: as §1

[9] = test system: Staphylococcus aureus (Oxford H); assay: MIC, microtitre method (Example 30); conditions: read-out: Minimum Inhibitory Concentration
Experimental: as §1

[10] = Blood and tissue levels of clavulanic acid in female mice; format: in vivo
Proteus vulgaris W090 = assay: MIC, microtitre method (Example 30); conditions: W090, read-out: Minimum Inhibitory Concentration
Experimental: as §1

Serratia marcescens [11] = assay: MIC / synergism, microtitre method (Example 42); format: cell-based; conditions: agent alone, inoculum final dilution 0.5 ×10^-2, 37° C overnight, read-out: Minimum Inhibitory Concentration
Klebsiella aerogenes = assay: MIC, microtitre method (Example 30); conditions: read-out: Minimum Inhibitory Concentration
Experimental: as §1

Enterobacter cloacae [12] = assay: MIC, microtitre method (Example 30); conditions: read-out: Minimum Inhibitory Concentration
Experimental: as §1

Escherichia coli B 11 = assay: MIC / synergism, microtitre method (Example 42); format: cell-based; conditions: B11, agent alone, inoculum final dilution 0.5 ×10^-2, 37° C overnight, read-out: Minimum Inhibitory Concentration
Proteus mirabilis 899 = assay: microbe, parasite or virus in culture; format: cell-based; conditions: Proteus mirabilis, 899, read-out: Minimum Inhibitory Concentration

In the case of `O=C(O)[C@H]1/C(=C/CO)O[C@@H]2CC(=O)N21` [clavulanic acid sodium salt, 3-(β-hydroxyethylidine)-7-oxo-4-oxa-1-azabicyclo [3,2,0]heptane-2-carboxylic acid sodium salt], the MIC (Proteus mirabilis C977) is reported as 62 µg/mL, the MIC [1] is reported as 31 µg/mL and the MIC (Providentia stuartii) is reported as 125 µg/mL. The MIC (Klebsiella oxytocum) was 62 µg/mL, the MIC (Acinetobacter anitratus) was 125 µg/mL and the MIC (Klebsiella sp 62) was 31 µg/mL. It also gave an MIC [2] of 31 µg/mL, an MIC (Salmonella typhimurium) of 31 µg/mL and an MIC (Enterobacter cloacae [3]) of 62 µg/mL. It also gave an MIC [4] of 15 µg/mL, an MIC [5] of 7.5 µg/mL and an MIC (Bacillus subtilis) of 62 µg/mL. The MIC (Escherchia coli 10418) was 125 µg/mL, the MIC [6] was 125 µg/mL and the MIC (Serratia marcescens [7]) was 125 µg/mL. The MIC (Shigella sonnei) was 62 µg/mL, the MIC (Streptococcus faecalis) was greater than 500 µg/mL and the MIC (Staph. aureus Russell) was 15 µg/mL. For the same compound, the MIC (Staphylococcus aureus) was 62 µg/mL, the MIC (Pseudomonas aeruginosa A) was 500 µg/mL and the MIC [8] was 31 µg/mL. For the same compound, the MIC (Bacillus subtilis A) was 62 µg/mL, the MIC (Staph. aureus Oxford) was 15 µg/mL and the MIC [9] was 7.5 µg/mL. The “levels of clavulanic acid after oral administration” value ([10]; oral administration of 100 mg/kg) was “useful levels of clavulanic acid can be obtained”, the “blood and tissue levels of clavulanic acid” value ([10]; subcutaneous administration of 100 mg/kg) was greater than 5 µg/mL and the MIC (Proteus vulgaris W090) was 31 µg/mL. For the same compound, the MIC (Serratia marcescens [11]) was 125 µg/mL, the MIC (Klebsiella aerogenes) was 31 to 62 µg/mL and the MIC (Enterobacter cloacae [12]) was 62 µg/mL. It also gave an MIC (Escherichia coli B 11) of 62 µg/mL and an MIC (Proteus mirabilis 899) greater than 500 µg/mL.
